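A five-concentration, 48-hour dose response in 96-well plates underlies each endpoint, interpolated linearly between surrounding concentrations. Abbreviation: GI50, concentration required for 50% inhibition of growth.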 The source made the active and inactive calls. No stated cut-off is given here; in the data, active = GI50 up to about 1.1 µM and inactive = higher.
Legend:
Assay in all cases: growth of human tumour cells (NCI), 48 h
786-0 = system: 786-0
ACHN = system: ACHN
HCT-116 = system: HCT-116
HOP-62 = system: HOP-62
HT-29 = system: HT-29
KM12 = system: KM12
M14 = system: M14
MCF7 = system: MCF7
MDA-MB-435 = system: MDA-MB-435
MDA-N = system: MDA-N
MOLT-4 = system: MOLT-4
Malme-3M = system: Malme-3M
NCI-H23 = system: NCI-H23
NCI-H460 = system: NCI-H460
OVCAR-8 = system: OVCAR-8
PC-3 = system: PC-3
SK-OV-3 = system: SK-OV-3
SNB-75 = system: SNB-75
U-251 = system: U-251
UACC-62 = system: UACC-62

SMILES | GI50 (786-0) | GI50 (ACHN) | GI50 (HCT-116) | GI50 (HOP-62) | GI50 (HT-29) | GI50 (KM12) | GI50 (M14) | GI50 (MCF7) | GI50 (MDA-MB-435) | GI50 (MDA-N) | GI50 (MOLT-4) | GI50 (Malme-3M) | GI50 (NCI-H23) | GI50 (NCI-H460) | GI50 (OVCAR-8) | GI50 (PC-3) | GI50 (SK-OV-3) | GI50 (SNB-75) | GI50 (U-251) | GI50 (UACC-62)
COC(=O)c1ccc(C)cc1CC1Cc2c(C)cccc2C1=O (stereo unspecified) | 12.8 µM (inactive) | 22.2 µM (inactive) | 3.58 µM (inactive) | 13.6 µM (inactive) | 3.04 µM (inactive) | 3.4 µM (inactive) | 9.27 µM (inactive) | 2.11 µM (inactive) | 1.82 µM (inactive) | 1.87 µM (inactive) | 5.56 µM (inactive) | 10.7 µM (inactive) | 12.4 µM (inactive) | 17.8 µM (inactive) | 14.3 µM (inactive) | 6.5 µM (inactive) | 6.21 µM (inactive) | 4.16 µM (inactive) | 5.96 µM (inactive) | 6.01 µM (inactive)
CN(C)c1ccc(C(=C2C=CC(=[N+](C)C)C=C2)c2c(O)c(S(=O)(=O)[O-])cc3cc(S(=O)(=O)O)ccc23)cc1 | > 100 µM (inactive) | > 100 µM (inactive) | > 100 µM (inactive) | > 100 µM (inactive) | > 100 µM (inactive) | > 100 µM (inactive) | > 100 µM (inactive) | > 100 µM (inactive) | > 100 µM (inactive) | > 100 µM (inactive) | > 100 µM (inactive) | > 100 µM (inactive) | > 100 µM (inactive) | > 100 µM (inactive) | > 100 µM (inactive) | > 100 µM (inactive) | > 100 µM (inactive) | > 100 µM (inactive) | > 100 µM (inactive) | > 100 µM (inactive)
Cc1cc([C@H](C#N)c2nc3ccccc3s2)nc(Cl)n1 | 4.76 µM (inactive) | 9.25 µM (inactive) | 3.22 µM (inactive) | 4.66 µM (inactive) | 3.88 µM (inactive) | 2.78 µM (inactive) | 5.57 µM (inactive) | 4.41 µM (inactive) | 2.99 µM (inactive) | 3.55 µM (inactive) | 5.5 µM (inactive) | 3.81 µM (inactive) | 2.78 µM (inactive) | 3.45 µM (inactive) | 3.18 µM (inactive) | 3.54 µM (inactive) | 5.66 µM (inactive) | 2.21 µM (inactive) | 2.86 µM (inactive) | 3.65 µM (inactive)
NC1CC(=O)c2cc(Br)sc21 (stereo unspecified) | > 100 µM (inactive) | > 100 µM (inactive) | > 100 µM (inactive) | > 100 µM (inactive) | > 100 µM (inactive) | > 100 µM (inactive) | > 100 µM (inactive) | > 100 µM (inactive) | > 100 µM (inactive) | > 100 µM (inactive) | > 100 µM (inactive) | > 100 µM (inactive) | – | > 100 µM (inactive) | > 100 µM (inactive) | > 100 µM (inactive) | > 100 µM (inactive) | > 100 µM (inactive) | > 100 µM (inactive) | > 100 µM (inactive)
CC(C)COC(c1ccc2c(c1)OCO2)C(C)Br (stereo unspecified) | 23.4 µM (inactive) | 34 µM (inactive) | 17.2 µM (inactive) | 24.9 µM (inactive) | 18.9 µM (inactive) | 22.9 µM (inactive) | 21.1 µM (inactive) | 31.4 µM (inactive) | 21.7 µM (inactive) | 21.6 µM (inactive) | – | 17.1 µM (inactive) | 26.2 µM (inactive) | 20 µM (inactive) | 30.2 µM (inactive) | 30.9 µM (inactive) | 24.1 µM (inactive) | 23.1 µM (inactive) | 26.5 µM (inactive) | 31.7 µM (inactive)
CC1(C)CS(=O)(=O)CC(C)(C)C(=N/N)/C1=N\N | > 100 µM (inactive) | > 100 µM (inactive) | > 100 µM (inactive) | > 100 µM (inactive) | > 100 µM (inactive) | > 100 µM (inactive) | > 100 µM (inactive) | > 100 µM (inactive) | > 100 µM (inactive) | > 100 µM (inactive) | – | > 100 µM (inactive) | > 100 µM (inactive) | > 100 µM (inactive) | > 100 µM (inactive) | > 100 µM (inactive) | > 100 µM (inactive) | > 100 µM (inactive) | > 100 µM (inactive) | > 100 µM (inactive)
CC(=O)OCC(OC(C)=O)C1C[C@H]2O[C@@H]3[C@H](C[C@H]2O1)O[C@@]1(C[C@@H]3C)C[C@H](C)[C@@H]2O[C@]3(C[C@@H]2O1)C[C@H]1O[C@H]2[C@H](C)[C@H]4OC(=O)CC5CC[C@H]6OC7[C@H]8O[C@]9(CC[C@H]%10CC(O)(CO)[C@H](CC[C@H]%11C[C@@H](C)C(O)(CO)C(C[C@@H]4O[C@H]2C[C@H]1O3)O%11)O%10)CC8O[C@@H]7[C@@H](O9)[C@H]6O5 (stereo partly specified) | 0.00532 µM (active) | 0.0479 µM (active) | 0.00438 µM (active) | 0.0622 µM (active) | – | 0.00415 µM (active) | 0.00935 µM (active) | 0.00281 µM (active) | 0.000853 µM (active) | 0.00083 µM (active) | 0.0064 µM (active) | 0.00297 µM (active) | 0.00496 µM (active) | 0.00371 µM (active) | 0.0121 µM (active) | 0.00614 µM (active) | 0.0284 µM (active) | 0.00308 µM (active) | 0.00618 µM (active) | 0.00305 µM (active)
